Assay results from BindingDB's records for doi:10.1021/jm501636x (University of Massachusetts Medical School, 2015).

Experiment: Inhibition of PAD4 in C57BL/6 mouse bone marrow neutrophils assessed as inhibition of PMA-stimulated neutrophil extracellular trap formation preincubated for 30 mins followed by PMA stimulation measured after 3 to 4 hrs by DNA/neutrophil elastase overlap assay

- EC50: 20 µM
SMILES: CC(C)(C)n1nnc([C@H](CCCNC(=N)CCl)NC(=O)c2ccc(-c3ccccc3)cc2)n1
